Earlier results, collected in PMC5742115, “Pharmacophore Modeling and in Silico/in Vitro Screening for Human Cytochrome P450 11B1 and Cytochrome P450 11B2 Inhibitors” (Frontiers in Chemistry, 2017).
Where two headings read alike, the source gives them in different places.

Assays:
CYP11B2 = conditions: reported activity, supplementary Table 1, read-out: CYP11B2 IC50, cited from earlier work
CYP11B1 = conditions: reported activity, supplementary Table 1, read-out: CYP11B1 IC50, cited from earlier work

Structure (SMILES)	IC50 (CYP11B1; ref Ulmschneider et al., 2005a) [nM]	IC50 (CYP11B2; ref Ulmschneider et al., 2005a) [nM]	other results
CCOC(=O)c1cncn1[C@H](C)c1ccccc1 [CHEMBL681, Etomidate]	–	–	IC50 (CYP11B2; ref Dorr et al., 1984): 0.1 nM; IC50 (CYP11B2; ref Roumen et al., 2010): 1.7 nM
O=C1CCc2cc(-c3cccnc3)ccc2N1 [CHEMBL62811]	–	–	IC50 (CYP11B1; ref Lucas et al., 2008b): 6750 nM; IC50 (CYP11B2; ref Lucas et al., 2008b): 28 nM
O=c1c2ccccc2oc2c(Br)ccc(Cn3ccnc3)c12 [CHEMBL78322]	–	–	IC50 (CYP11B1; ref Gobbi et al., 2013): 6.7 nM; IC50 (CYP11B2; ref Gobbi et al., 2013): 8.5 nM
Cc1cncn1Cc1ccc(C#N)cc1 [CHEMBL162496]	–	–	IC50 (CYP11B1; ref Roumen et al., 2010): 141 nM; IC50 (CYP11B2; ref Roumen et al., 2010): 12 nM
Brc1ccc2c(c1)CC/C2=C/c1c[nH]cn1 [CHEMBL174579]	–	–	IC50 (CYP11B2; ref Ulmschneider et al., 2005b): 10.3 nM
N#Cc1ccc2c(c1)CC/C2=C/c1ncc[nH]1 [CHEMBL175091]	–	–	IC50 (CYP11B1; ref Ulmschneider et al., 2005b): 12.3 nM; IC50 (CYP11B2; ref Ulmschneider et al., 2005b): 35.7 nM
Clc1ccc2c(c1)/C(=C/c1cnc[nH]1)CCC2 [CHEMBL175144]	–	–	IC50 (CYP11B2; ref Ulmschneider et al., 2005b): 47.3 nM
Clc1ccc2c(c1)CC/C2=C\c1ccncc1 [CHEMBL175554]	1520	18	–
COc1ccc2c(c1)CC/C2=C/c1ccncc1 [CHEMBL175609]	–	55	–
Clc1ccc2c(c1)CC/C2=C/c1c[nH]cn1 [CHEMBL175688]	–	–	IC50 (CYP11B1; ref Ulmschneider et al., 2005b): 19.5 nM; IC50 (CYP11B2; ref Ulmschneider et al., 2005b): 3.7 nM
COc1cccc2c1/C(=C/c1cccnc1)CC2 [CHEMBL175791]	955	27	–
Clc1ccc2c(c1)CC/C2=C/c1ccncc1 [CHEMBL175799]	301	36	–
C(=C1/CCc2ccccc21)/c1ccncc1 [CHEMBL175962]	–	8	–
COc1ccc2c(c1)CCC/C2=C\c1ccncc1 [CHEMBL175979]	–	22	–
COc1ccc2c(c1)CC/C2=C/c1cccnc1 [CHEMBL176101]	790	26	–
Clc1cccc2c1CC/C2=C\c1cccnc1 [CHEMBL176287]	304	9	–
COc1ccc2c(c1)CC/C2=C\c1cccnc1 [CHEMBL176609]	1450	34	–
Brc1ccc2c(c1)CC/C2=C\c1cnc[nH]1 [CHEMBL177293]	1940	37	IC50 (CYP11B2; ref Ulmschneider et al., 2005b): 92.8 nM
C(=C1/CCc2ccccc21)/c1cnc[nH]1 [CHEMBL177468]	–	–	IC50 (CYP11B1; ref Ulmschneider et al., 2005b): 29.5 nM; IC50 (CYP11B2; ref Ulmschneider et al., 2005b): 41 nM
C(=C1\CCc2ccccc21)/c1c[nH]cn1 [CHEMBL178036]	–	–	IC50 (CYP11B1; ref Ulmschneider et al., 2005b): 6.1 nM; IC50 (CYP11B2; ref Ulmschneider et al., 2005b): 11 nM

Structure (SMILES)	IC50 (CYP11B1; ref Ulmschneider et al., 2005a) [nM]	IC50 (CYP11B2; ref Ulmschneider et al., 2005a) [nM]	other results
Fc1ccc2c(c1)CC/C2=C/c1ccncc1 [CHEMBL179144]	–	–	IC50 (CYP11B1; ref Ulmschneider et al., 2005b): 34 nM; IC50 (CYP11B2; ref Ulmschneider et al., 2005b): 29 nM
C(=C1\CCc2ccccc21)/c1ccncc1 [CHEMBL179149]	931	18	–
Brc1ccc2c(c1)CC/C2=C/c1ccncc1 [CHEMBL179222]	484	56	–
Fc1ccc2c(c1)CC/C2=C/c1c[nH]cn1 [CHEMBL179247]	–	–	IC50 (CYP11B1; ref Ulmschneider et al., 2005b): 11.2 nM
Cc1ccc2c(c1)/C(=C\c1ccncc1)CC2 [CHEMBL192077]	–	8	–
COc1ccc2c(c1)CC/C2=C\c1cncs1 [CHEMBL192155]	–	17	–
CCOc1ccc2cc(-c3cccnc3)ccc2c1 [CHEMBL193343]	–	–	IC50 (CYP11B1; ref Voets et al., 2005): 5420 nM; IC50 (CYP11B2; ref Voets et al., 2005): 12 nM
COc1ccc2c(c1)CCC/C2=C/c1ccncc1 [CHEMBL193496]	–	56	–
Brc1ccc2cc(-c3cccnc3)ccc2c1 [CHEMBL193534]	–	–	IC50 (CYP11B1; ref Voets et al., 2005): 2940 nM; IC50 (CYP11B2; ref Voets et al., 2005): 15 nM
C(=C1/CC(c2ccccc2)c2ccccc21)/c1cccnc1 (stereo not drawn) [CHEMBL193555]	–	3	–
C(=C1/CCCc2ccccc21)/c1cccnc1 [CHEMBL193606]	715	22	–
Clc1ccc2c(c1)CC/C2=C/c1cccnc1 [CHEMBL193652]	270	73	–
c1ccc2cc(-c3cnco3)ccc2c1 [CHEMBL193653]	–	–	IC50 (CYP11B1; ref Voets et al., 2005): 805 nM; IC50 (CYP11B2; ref Voets et al., 2005): 12 nM
COc1cc2c(cc1OC)/C(=C/c1ccncc1)CCC2 [CHEMBL193858]	–	11	–
COc1ccc2ccc(-c3cccnc3)cc2c1 [CHEMBL193863]	–	–	IC50 (CYP11B2; ref Pinto-Bazurco Mendieta et al., 2013): 68 nM
Fc1ccc2c(c1)CC/C2=C\c1cccnc1 [CHEMBL193997]	311	7	–
C/C(=C1/CCc2cc(F)ccc21)c1cccnc1 [CHEMBL194047]	–	–	IC50 (CYP11B1; ref Ulmschneider et al., 2005b): 96 nM
Brc1ccc2c(c1)CC/C2=C\c1cccnc1 [CHEMBL194440]	320	171	–
COc1cc2ccccc2cc1-n1ccnc1 [CHEMBL194472]	–	–	IC50 (CYP11B1; ref Voets et al., 2005): 81 nM; IC50 (CYP11B2; ref Voets et al., 2005): 19 nM
